Data on three compounds can be found in patent US20120095012A1, “TOLUIDINE SULFONAMIDES AND THEIR USE” (Elara Pharmaceuticals GmbH, priority 2008, published 2012).

pEC50: −log10 of the molar value. Some results are limits rather than exact numbers.

Assay [1] relates to HIF mediated transcription. As to the kind of experiment: Inhibition of activation of HIF mediated transcription under hypoxic conditions (CellSensor HRE-bla HCT-116 reporter, DFO-induced). In kind it is cell-based. The note with it: Homo sapiens; HRE-bla HCT-116 reporter cells, deferoxamine-induced hypoxia, 24 h. The method, then:
Inhibition of an activated HIF signaling response under chemically-induced hypoxic conditions due to compound treatment was determined using the CellSensor® […] HCT-116 stably transfected reporter cell line from Invitrogen according to the manufacturer's instructions. HIF is a transcriptional factor composed of the constitutively expressed HIF 1β subunit and one of three HIFα subunits (HIF1α, HIF2α, HIF3α). This assay is responsive towards HIFα activity in general. In one example, HIF-1, when stabilized by hypoxic conditions, upregulates several genes to promote cell survival in low-oxygen conditions. These include glycolysis enzymes, which allow ATP synthesis in an oxygen-independent manner, and vascular endothelial growth factor (VEGF), which promotes angiogenesis. HIF-1 acts by binding to HIF-responsive elements (HREs) in promoters that generally contain the sequence NCGTG.
Cells were maintained as described previously and seeded into 384-well, clear-bottom plates (Corning 3712) at 15000 cells/well in 32 μl assay medium (Opti-MEM [Invitrogen], 0.5% FBS, 100 U/ml penicillin, 100 μg/ml streptomycin, 0.1 mM non-essential amino acids [NEAA], 1 mM sodium pyruvate, 5 mM HEPES [pH 7.3]). Following a 2 h incubation period, compounds (4 μl) were subsequently added to the cells at 10× concentrations in 5% DMSO and incubated under normal conditions for 30 min. To induce hypoxic conditions, 4 μl of a 2 mM deferoxamine (DFO) solution was added to the cells followed by 24 h incubation under standard assay conditions (as described). Control wells included wells containing only medium (no cells) and wells treated with 0.5% DMSO instead of compound.
Prior to the readout, the Substrate Loading Solution was prepared as described in the manufacturer's protocol and 10 μl added to each well. Following a further 2 h incubation period at room temperature and in the dark, fluorescence was measured at two wavelengths (blue channel: ex. 409 nm, em. 460 nm; green channel: ex. 409 nm, em. 530 nm) on a PerkinElmer Envision HTS. For the analysis, the average signal of the cell-free wells at 460 nm and 530 nm was first subtracted from the blue and green channel data, respectively. The blue/green emission ratios were then calculated for each well, dividing the background-corrected blue emission values by the background-corrected green emission values. IC50 values were determined from these ratios using GraphPad Prism (Prism 5, GraphPad software, Inc.).

Assay [2] has as its target T1, tubulin (from porcine brain) (Sus scrofa, UniProt P02550+P02554).
T1 construct: prepared in-house from porcine brain using a standard procedure involving cycles of polymerization/de-polymerization; from tissue; host or cells: porcine brain
As to the kind of experiment: Inhibition of in vitro tubulin polymerization (OD 340 nm, 90 min). Particulars: final absorbance at 90 min vs vehicle control, read-out: tubulin inhib. (at 10 μM). The class given is biochemical. As to the method: To assess the degree of inhibition of in vitro tubulin polymerization, a tubulin solution (prepared in-house from porcine brain using a standard procedure involving cycles of polymerization/de-polymerization, (see Castoldi & Popov (2003) Protein Expr. Purif. 32(1): 83-88), was incubated with varying concentrations of compounds under polymerizing conditions and kinetic experiments performed to determine the amount of polymerization (as measured by changes in OD at 340 nm) taking place over a 90 min period.
Compound solutions were diluted in double-distilled water to yield final 10× solutions containing 5% DMSO. 5 μl solutions were then added to the wells on a 384-well clear-bottom plate (Corning #3711, Corning Inc.) in preparation for the addition of tubulin. The tubulin solution (19.6 mg/ml, in 80 mM K-PIPES [pH 6.8], 1 mM MgCl2, 1 mM EGTA) was re-suspended to a final concentration of 4 mg/ml with ice cold G-PEM buffer (80 mM PIPES [pH 6.8], 2 mM MgCl2, 0.5 mM EGTA, 10% glycerol, 1 mM GTP) and maintained on ice for at least 1 min. 50 μl was then added to the pre-dispensed compound solutions, the plate orbital shaken on a medium setting for 5s, and the first measurement begun immediately.
Experiments were carried out on a Safire^2 ™ monochromator (Tecan) preset to a stable temperature of 37° C.; the degree of polymerization was determined by measuring the absorbance of the solutions at 340 nm every minute over the 90 min cycle. Reported inhibition values were based on the final absorbance at 90 min and calculated with reference to a vehicle control (0.5% DMSO) using the minimum and maximum signals obtained for this sample.

Assay [3] concerns MCF-7 human breast adenocarcinoma cells; HRE-bla HCT116 cell line (colorectal carcinoma). As to the kind of experiment: Cell proliferation assay (ATPlite luminescence). The class given is cell-based. Particulars: Homo sapiens, ATPlite readout, cell line not given. As to the method: MCF-7 human breast adenocarcinoma cells were obtained from ATCC (LGC Promochem). The CellSensor® HRE-bla HCT116 cell line (colorectal carcinoma) was obtained from Invitrogen.
Cells were grown under humidified 95% air, 5% CO2 at 37° C. in Dulbecco's modified Eagle's medium (DMEM: MCF-7) or McCoy's 5A medium (HRE-bla HCT116) supplemented with 10% fetal bovine serum (FBS), 100 U/ml penicillin and 100 μg/ml streptomycin, 2 mM L-glutamine, and blasticidin at 5 μg/ml as a selection marker (for the HRE-bla HCT116 cell line only).
Cell proliferation experiments were carried out in 96-well tissue culture plates with seeding of 2000 cells/well in 100 μl of the relevant medium. Cells were subsequently incubated under the conditions mentioned for 24 h prior to addition of compounds.
To determine the degree of inhibition of cell proliferation, cells were treated with ATPlite solution according to the manufacturer's instructions (PerkinElmer, ATPlite 1-step Luminescence ATP Detection Assay System) and luciferase readout measured on an Envision HTS multilabel plate reader (PerkinElmer) in luminescence mode according to established protocols. Raw data were imported into an ActivityBase database (IDBS, ID Business Solutions) and EC50 values calculated using the IDBS program ActivityBase XE.
For orientation: Cellular ATP, detected with luciferase, serves as a proxy for viable cell number.

T1 sequence (P02550 whole entry): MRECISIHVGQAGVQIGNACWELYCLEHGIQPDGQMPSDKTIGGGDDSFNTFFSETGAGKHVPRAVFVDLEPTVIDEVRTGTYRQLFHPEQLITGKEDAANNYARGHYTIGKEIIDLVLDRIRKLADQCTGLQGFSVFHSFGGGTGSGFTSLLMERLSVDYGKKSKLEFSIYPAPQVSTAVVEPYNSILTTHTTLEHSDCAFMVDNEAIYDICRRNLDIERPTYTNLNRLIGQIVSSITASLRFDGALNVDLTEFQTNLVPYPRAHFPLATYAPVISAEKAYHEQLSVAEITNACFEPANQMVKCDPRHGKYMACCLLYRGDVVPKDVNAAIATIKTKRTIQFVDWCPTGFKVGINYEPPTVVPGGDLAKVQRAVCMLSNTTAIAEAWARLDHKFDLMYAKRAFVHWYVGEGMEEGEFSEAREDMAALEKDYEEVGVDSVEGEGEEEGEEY
T1 sequence (P02554 whole entry): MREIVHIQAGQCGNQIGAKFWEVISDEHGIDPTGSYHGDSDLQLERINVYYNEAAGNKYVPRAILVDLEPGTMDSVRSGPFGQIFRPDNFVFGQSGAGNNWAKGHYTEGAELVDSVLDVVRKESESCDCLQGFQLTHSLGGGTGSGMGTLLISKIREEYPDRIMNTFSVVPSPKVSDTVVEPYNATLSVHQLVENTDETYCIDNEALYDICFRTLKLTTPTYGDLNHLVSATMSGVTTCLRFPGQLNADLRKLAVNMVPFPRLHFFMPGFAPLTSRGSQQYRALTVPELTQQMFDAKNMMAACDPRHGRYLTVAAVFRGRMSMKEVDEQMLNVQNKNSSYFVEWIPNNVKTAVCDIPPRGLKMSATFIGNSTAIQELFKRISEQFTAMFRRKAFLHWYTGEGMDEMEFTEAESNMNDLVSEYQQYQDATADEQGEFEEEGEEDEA

For the compound `CCc1ccc(S(=O)(=O)Nc2cc(-c3ccc(C#N)s3)ccc2C)s1` [Example 1, 5-Ethyl-thiophene-2-sulfonic acid [5-(5-cyano-thiophen-2-yl)-2-methyl-phenyl]-amide], the pEC50 in assay [1] and in assay [3] was above 6.30 throughout. Moreover, the inhibition at 10 µM in assay [2] is 20 to 50%.
For `COc1ccc(S(=O)(=O)Nc2cc(-c3ccc(C#N)s3)ccc2C)cn1` [Example 2, 6-Methoxy-pyridine-3-sulfonic acid [5-(5-cyano-thiophen-2-yl)-2-methyl-phenyl]-amide], the pEC50 in assay [1] and in assay [3] was above 6.30 in each case. Moreover, the inhibition at 10 µM in assay [2] was below 20%.
Take `Cc1ccc(S(=O)(=O)Nc2cc(-c3ccc(C#N)s3)ccc2C)s1` [Example 3, 5-Methyl-thiophene-2-sulfonic acid [5-(5-cyano-thiophen-2-yl)-2-methyl-phenyl]-amide]: the inhibition at 10 µM in assay [2] was below 20%. For the same compound, the negative logarithm of the EC50 (pEC50) – broadly, the EC50 on a negative log10 scale, so that one unit is a factor of ten – in assay [3] was above 6.30.
